The results in this text go back to patent publication US12187727B2, “Methods for antagonizing a melanocortin 4 receptor” (Pfizer Inc., priority 2020, dated 2025).

Like-named read-outs stand apart in the source and are kept apart here.

Assay [1] has as its target human Melanocortin-4 receptor (MC4R) (Homo sapiens (Human), UniProt P32245). In words: Functional in vitro MC4R antagonist potency assay (cAMP HTRF in CHO cells). It counts as cell-based. A digest of the protocol:
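CHO cells stably expressing human MC4R were preincubated 30 min at 37 °C with compound ([…], 0.1% DMSO), then stimulated 30 min with EC80 αMSH (200 nM). Intracellular cAMP quantified by HTRF competitive immunoassay and normalized to agonist-stimulated and vehicle-only wells.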
(In general: In TR-FRET formats the signal depends on donor and acceptor labels being close together.)

Assay [2] deals with hMC4R (Homo sapiens (Human), UniProt P32245). Nature of the assay: In vitro binding affinity assay using hMC4R (radioligand competition binding, [125I]-(Nle4, D-Phe7)-α-MSH). The settings on record: geometric mean. (Loss of bound radioactivity is the signal in a displacement assay; it reports binding, not function.)
Chain of hMC4R (P32245 whole entry): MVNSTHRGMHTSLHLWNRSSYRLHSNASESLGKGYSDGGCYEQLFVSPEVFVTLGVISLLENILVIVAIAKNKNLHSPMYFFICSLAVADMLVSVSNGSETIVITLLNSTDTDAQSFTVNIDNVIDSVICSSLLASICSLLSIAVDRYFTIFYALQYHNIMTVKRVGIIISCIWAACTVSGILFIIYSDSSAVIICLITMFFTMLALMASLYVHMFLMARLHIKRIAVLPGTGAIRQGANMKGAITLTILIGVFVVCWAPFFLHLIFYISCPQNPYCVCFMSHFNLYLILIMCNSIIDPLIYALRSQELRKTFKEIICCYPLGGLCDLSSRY
Where [3] appears, read: read-out: Kb (nM) Antagonist geometric mean.
Setting [4] is: read-out: Ki (nM) geometric mean.
Setting [5] is: human MC4R in CHO cells, cAMP HTRF, 200 nM aMSH challenge, Kb from IC50 by Leff-Dougall equation, geometric mean, read-out: Kb (nM) Antagonist geometric.

Chain of human Melanocortin-4 receptor (MC4R) (P32245 whole entry): as above

Regarding `COc1nccc([C@@H](C)C(=O)N2CC[C@@]3(CCc4cc(-c5ncccn5)c(C)nc4N3)C2)c1F` (single isomer, unassigned) [Example 57], the Kb in assay [1] (setting [3]) came out at 12 nM. Also, the Ki in assay [2] (setting [4]) amounted to 2.5 nM.

For the compound `COc1nccc([C@@H](C)C(=O)N2CC[C@@]3(CCc4cc(-c5ncccn5)c(C)nc4N3)C2)c1F` (single isomer, unassigned) [Example 58], in assay [1] (setting [3]), the Kb was more than 62 nM. Besides, the Ki in assay [2] (setting [4]) was determined as 190 nM.

With `Cc1nc2c(cc1-c1ncccn1)CC[C@@]1(CCN(C(=O)[C@H](C)c3cc(OC(F)F)ncc3Cl)C1)N2` (single isomer, unassigned) [Example 60], the Kb in assay [1] (setting [3]) amounted to 0.18 nM. Further, the Ki in assay [2] (setting [4]) came to 0.54 nM.

Regarding `COc1cc(OC(F)F)cc([C@@H](C)C(=O)N2CC[C@@]3(CCc4cc(-c5ncccn5)c(C)nc4N3)C2)c1` (single isomer, unassigned) [Example 62], the Kb in assay [1] (setting [3]) is 0.08 nM. Besides, the Ki in assay [2] (setting [4]) turned out to be 0.15 nM.

For `Cc1nc2c(cc1-c1ncccn1)CC[C@@]1(CCN(C(=O)C(C)c3cc(OC(F)(F)F)ncc3Cl)C1)N2` (single isomer, unassigned) [Example 64], the Kb in assay [1] (setting [3]) is 5.1 nM. Moreover, in assay [2] (setting [4]), the Ki stood at 1 nM.

As for `Cc1nc2c(cc1-c1ncccn1)CC[C@@]1(CCN(C(=O)[C@H](C)c3cc(OC(F)(F)F)ncc3F)C1)N2` (single isomer, unassigned) [Example 76], the Kb in assay [1] (setting [3]) is 9 nM. Also, the Ki in assay [2] (setting [4]) stood at 2.2 nM.

On to `Cc1nc2c(cc1-c1ncccn1)CC[C@@]1(CCN(C(=O)[C@H](C)c3cc(OC(F)F)ncc3F)C1)N2` (single isomer, unassigned) [Example 78], for which the Kb in assay [1] (setting [3]) is 1.2 nM. Besides, the Ki in assay [2] (setting [4]) turned out to be 0.62 nM.

Regarding `Cc1nc2c(cc1-c1ncccn1)CC[C@@]1(CCN(C(=O)[C@H](C)c3cc(C(F)(F)F)ncc3F)C1)N2` (single isomer, unassigned) [Example 80], the antagonist dissociation constant (Kb) in assay [1] (setting [3]) stood at 28 nM. For the same compound, the inhibitory constant (Ki) in assay [2] (setting [4]) turned out to be 8 nM.

Regarding `COc1cc([C@@H](C)C(=O)N2CC[C@@]3(CCc4cc(-c5nc(C(F)(F)F)n(C)n5)c(C)nc4N3)C2)c(F)cn1` (single isomer, unassigned) [Example 93], in assay [1] (setting [3]), the Kb is 4.1 nM. The Ki in assay [2] (setting [4]) is 16 nM.

For the compound `COc1cc([C@@H](C)C(=O)N2CC[C@@]3(CCc4cc(-c5nc(C(F)(F)F)n(C)n5)c(C)nc4N3)C2)c(Cl)cn1` (single isomer, unassigned) [Example 95], in assay [1] (setting [3]), the Kb is 7.5 nM. Moreover, in assay [2] (setting [4]), the Ki was 86 nM.

Consider `COc1cc(OC)cc([C@@H](C)C(=O)N2CC[C@@]3(CCc4ccc(C)nc4N3)C2)c1` (single isomer, unassigned) [Example 96], for which the Kb in assay [1] (setting [3]) was determined as 11 nM. Further, the Ki in assay [2] (setting [4]) was found to be 4.1 nM.

In the case of `COc1cc([C@@H](C)C(=O)N2CC[C@@]3(CCc4cc(-c5cnn(C)c5)c(C)nc4N3)C2)c(Cl)cn1` (single isomer, unassigned) [Example 105], the Kb in assay [1] (setting [5]) worked out at 16 nM. Also, in assay [2] (read-out: Ki (nM) geometric), the Ki was determined as 54 nM.

Consider `Cc1nc2c(cc1-c1nnn(C)n1)CC[C@@]1(CCN(C(=O)[C@H](C)c3ccc(OC(F)F)nc3)C1)N2` (single isomer, unassigned) [Example 108], for which the Kb in assay [1] (setting [5]) came to 7.1 nM. The Ki in assay [2] (read-out: Ki (nM) geometric) was found to be 1.2 nM.

Regarding `COc1cc([C@@H](C)C(=O)N2CC[C@@]3(CCc4cc(-c5nc(OC)n(C)n5)c(C)nc4N3)C2)c(F)cn1` (single isomer, unassigned) [Example 113], in assay [1] (setting [5]), the Kb stood at 8 nM. The Ki in assay [2] (read-out: Ki (nM) geometric) was 17 nM.

As for `COc1cc([C@@H](C)C(=O)N2CCC3(CCc4cc(-c5nc(OC)n(C)n5)c(C)nc4N3)C2)c(Cl)cn1` (single isomer, unassigned) [Example 114], the Kb in assay [1] (setting [5]) came to 0.25 nM. Moreover, in assay [2] (read-out: Ki (nM) geometric), the Ki was 0.48 nM.

With `COc1cc([C@@H](C)C(=O)N2CCC3(CCc4cc(-c5nc(OC)n(C)n5)c(C)nc4N3)C2)c(Cl)cn1` (single isomer, unassigned) [Example 115], the Kb in assay [1] (setting [5]) stood at 3.5 nM. Moreover, the Ki in assay [2] (read-out: Ki (nM) geometric) worked out at 31 nM.

As to `COc1cc([C@@H](C)C(=O)N2CC[C@@]3(CCc4cc(-c5nc(C(F)F)n(C)n5)c(C)nc4N3)C2)nc(C)n1` (single isomer, unassigned) [Example 124], the Kb in assay [1] (setting [5]) was determined as 0.81 nM. In addition, in assay [2] (read-out: Ki (nM) geometric), the Ki stood at 6.7 nM.

For `COc1cc([C@@H](C)C(=O)N2CC[C@@]3(CCc4cc(-c5nnn(C)n5)c(C)nc4N3)C2)nc(C(F)F)n1` (single isomer, unassigned) [Example 128], the Kb in assay [1] (setting [5]) is 3.8 nM. For the same compound, the Ki in assay [2] (read-out: Ki (nM) geometric) worked out at 10 nM.

Turning to `COc1cc([C@@H](C)C(=O)N2CC[C@@]3(CCc4cc(-c5nc6ccccn6n5)c(C)nc4N3)C2)nc(C(F)F)n1` (single isomer, unassigned) [Example 129], the Kb in assay [1] (setting [5]) stood at 1.5 nM. Moreover, in assay [2] (read-out: Ki (nM) geometric), the Ki is 0.44 nM.

Consider `COc1cc([C@@H](C)C(=O)N2CC[C@@]3(CCc4cc(-c5nc6ccccn6n5)c(C)nc4N3)C2)nc(C(F)F)n1` (single isomer, unassigned) [Example 130], for which the Kb in assay [1] (setting [5]) came out at 9 nM. Besides, in assay [2] (read-out: Ki (nM) geometric), the Ki turned out to be 5.9 nM.

As to `COc1ncc(F)c([C@@H](C)C(=O)N2CC[C@@]3(CCc4cc(-c5nc6ccccn6n5)c(C)nc4N3)C2)n1` (single isomer, unassigned) [Example 132], the Kb in assay [1] (setting [5]) is 35 nM. For the same compound, the Ki in assay [2] (read-out: Ki (nM) geometric) was found to be 3.4 nM.

Consider `COc1ncc(F)c([C@@H](C)C(=O)N2CC[C@@]3(CCc4cc(-c5nnn(C)n5)c(C)nc4N3)C2)n1` (single isomer, unassigned) [Example 135], for which the Kb in assay [1] (setting [5]) amounted to 10 nM. Besides, the Ki in assay [2] (read-out: Ki (nM) geometric) came out at 3.8 nM.

For `COc1cc([C@@H](C)C(=O)N2CC[C@@]3(CCc4cc(-c5ncccn5)c(C)nc4N3)C2)c(C)cn1` (single isomer, unassigned) [Example 137], the Kb in assay [1] (setting [5]) was found to be 19 nM. Moreover, the Ki in assay [2] (read-out: Ki (nM) geometric) was found to be 59 nM.

Consider `COc1cc([C@](C)(F)C(=O)N2CC[C@@]3(CCc4cc(-c5ncccn5)c(C)nc4N3)C2)c(F)cn1` (single isomer, unassigned) [Example 149], for which the Kb in assay [1] (setting [5]) came to 7.9 nM. Besides, the Ki in assay [2] (read-out: Ki (nM) geometric) was found to be 1.8 nM.

With `Cc1nc2c(cc1-c1ncccn1)CC[C@@]1(CCN(C(=O)[C@H](C)c3ccc(F)cc3F)C1)N2` (single isomer, unassigned) [Example 191], in assay [1] (setting [5]), the Kb was more than 94 nM. For the same compound, the Ki in assay [2] (read-out: Ki (nM) geometric) was determined as 230 nM.

In the case of `Cc1nc2c(cc1-c1ncccn1)CC[C@@]1(CCN(C(=O)[C@H](C)c3ccnc(OC(F)F)c3)C1)N2` (single isomer, unassigned) [Example 195], the Kb in assay [1] (setting [5]) was determined as 3.5 nM. For the same compound, in assay [2] (read-out: Ki (nM) geometric), the Ki was found to be 1.2 nM.

For `COc1cc(CC(=O)N2CC[C@@]3(CCc4cc(-c5ncccn5)c(C)nc4N3)C2)c(F)cn1` [Example 106, 2-(5-fluoro-2-methoxypyridin-4-yl)-1-[(2S)-7-methyl-6-(pyrimidin-2-yl)-3,4-dihydro-1H-spiro[1,8-naphthyridine-2,3′-pyrrolidin]-1′-yl]ethan-1-one], the Kb in assay [1] (setting [5]) is 6.3 nM. For the same compound, the Ki in assay [2] (read-out: Ki (nM) geometric) stood at 3.5 nM.

Regarding `COc1cc([C@@H](C)C(=O)N2CC[C@@]3(CCc4cc(-c5nc6ccccn6n5)c(C)nc4N3)C2)c(F)cn1` [Example 111, (2R)-2-(5-fluoro-2-methoxypyridin-4-yl)-1-[(2S)-7-methyl-6-([1,2,4]triazolo[1,5-a]pyridin-2-yl)-3,4-dihydro-1H-spiro[1,8-naphthyridine-2,3′-pyrrolidin]-1′-yl]propan-1-one], in assay [1] (setting [5]), the Kb came to 0.47 nM. For the same compound, in assay [2] (read-out: Ki (nM) geometric), the Ki amounted to 0.25 nM.

On to `COc1cc([C@@H](C)C(=O)N2CC[C@@]3(CCc4cc(-c5cncc(OC)n5)c(C)nc4N3)C2)c(F)cn1` [Example 197, (2R)-2-(5-fluoro-2-methoxypyridin-4-yl)-1-[(2S)-6-(6-methoxypyrazin-2-yl)-7-methyl-3,4-dihydro-1H-spiro[1,8-naphthyridine-2,3′-pyrrolidin]-1′-yl]propan-1-one], for which the Kb in assay [1] (setting [5]) is 33 nM. In assay [2] (read-out: Ki (nM) geometric), the Ki stood at 18 nM.

What is called Kb is the equilibrium dissociation constant of an antagonist, usually derived from a functional assay. Broadly, the Ki is the dissociation constant of the complex between target and ligand, obtained from inhibition or displacement.
